Measurements from ChEMBL document CHEMBL5143710, “Design and synthesis of unprecedented 9- and 10-membered cyclonucleosides with PRMT5 inhibitory activity” (Bioorg Med Chem, 2022).

Assay: Inhibition of full-length (FL)-PRMT5:MEP50 enzyme complex (unknown origin) expressed in Sf21 cells assessed as reduction in methylation activity using the N-terminus of H4 histone derived substrate peptide H4R3(Me1) by PRMT5:MEP50 biochemical assay
Design: species or system Homo sapiens

Compound	IC50
Nc1ncnc2c1nc1n2[C@@H]2O[C@@H]([C@@H](O)[C@H]2O)[C@@H](c2ccc(F)c(F)c2)CCN1	5.7 µM
Nc1ncnc2c1nc1n2[C@@H]2O[C@@H]([C@@H](O)[C@H]2O)[C@@H](c2ccc(Cl)cc2)OCCO1	1 µM
